Literature values in patent publication US8148574B2, “Method for producing 5-aminolevulinic acid hydrochloride” (Cosmo Oil Co., Ltd., priority 2005, dated 2012).

Conditions: in water, at room temperature; depends on pH, temperature and coexisting solute

Cl.NCC(=O)CCC(=O)O [5-aminolevulinic acid hydrochloride]
solubility: ≥ 3 M
